# Results as given in US9351947B2, “Use of catecholamines and related compounds as anti-angiogenic agents” (National Research Council of Canada, priority 2007, dated 2016).
# Entries after “also recorded” stand apart in the source; their conditions may differ. Where two headings read alike, the source gives them in different places.
# Experiments:
# HUVECs [1] = experiment: Matrigel endothelial cell capillary-tube formation assay; format: cell-based, human; conditions: 22 h; for Activity (anti-angiogenicity): measured at 20 μM, HUVECs on Matrigel
# Protocol: HUVECs were purchased from Cedarlane Laboratories (Burlington, Canada) and maintained in Endothelial Cell Basal Medium-2 (EBM-2) supplemented with EGM-2 growth factor mixture (Clonetics) and 2% Foetal bovine serum. The cells were cultured at 37° C. under a humidified 95%/5% (v/v) mixture of air and CO2.
# Matrigel endothelial cell tube formation assays were performed using BD Matrigel™ (Becton, Dickinson). BD Matrigel™ was thawed at 4° C., and 150 μL were quickly added to each well of a 48-well plate and allowed to solidify for 60 min at 37° C. HUVECs (7×10^4 cells/mL) In EC basal medium-2 (EBM-2) were seeded 250 μL per well onto the surface of the solid BD Matrigel™ in the presence of the compounds to be tested. The cells were incubated for 22 h at […] in a 5% CO2 incubator. Tube formation was monitored by using a Leitz Labovert (Leitz, Wetzlar, Germany) inverted microscope. Two randomly selected two microscopic fields were photographed with a digital camera (Nikon, COOLPICKS 995). The total length of tube structures in each photograph was measured using ImageJ™ free software (http://rsb.info.nih.gov/ij/) and was normalized to that of control with no test compound. Each reported value represents the average of total six photographs from three independent experiments.
# angiogenesis = conditions: cited from earlier work; for Activity (angiogenic / anti-angiogenic): Ref. Thaker et al., 2006 (a), Ref. Basu et al., 2001 (b)
# HUVECs [2] = experiment: Invasion of HUVECs through Matrigel-coated filter (Matrigel Invasion Chambers); format: cell-based, human; conditions: measured at 20 μM; HUVECs
# Protocol: HUVECs were purchased from Cedarlane Laboratories (Burlington, Canada) and maintained in Endothelial Cell Basal Medium-2 (EBM-2) supplemented with EGM-2 growth factor mixture (Clonetics) and 2% Foetal bovine serum. The cells were cultured at 37° C. under a humidified 95%/5% (v/v) mixture of air and CO2. Invasion of endothelial cells was measured using BD BioCoatTM Growth Factor Reduced MatrigelTM Invasion Chambers (Beckton-Dickinson; […]). EBM-2 medium (500 μL each) was placed into the lower wells. HUVECs (2.5×10^4) in EBM-2 serum-free medium (500 μL) were seeded into each of the upper wells and incubated in the presence of a test compound. HUVECs were allowed to migrate for 36 h at 37° C. in an atmosphere of 95% air/5% CO2. HUVECs that remained on the upper surface of the filter were removed using a cotton swab. HUVECs that had migrated to the lower surface of the filters were fixed with methanol, stained with 0.1% crystal violet/20% (v/v) methanol and examined using a Leitz Labovert (Leitz, Wetzlar, Germany) inverted microscope after mounting on a slide. Three randomly selected microscopic fields were digitally captured using a Nikon […] 995 digital camera and the number of HUVECs in each photograph were directly counted. Each reported value represents the average and standard deviation of a total […] from two independent experiments.
# [3] = in vivo; cited from earlier work
# [4] = Optical stability (racemization) in eye drop formulations, 10 days at 55° C., chiral HPLC; format: physicochemical; conditions: for % optical purity: 3.0 mg/mL, pH 6.0, starting material 99.87%
# Protocol: The optical isomers of (S)-isoproterenol bitartrate and (S)-isoproterenol dipivalate hydrochloride were separated by HPLC using Shiseido chiral CD-Ph column (250×4.6 mm; 5 μm; isocratic 60:40 of 0.5 M sodium perchlorate/water and acetonitrile; flow rate, 1.0 mL/min). The elution profile was monitored by the absorption at 223 nm for isoproterenol bitartrate and 264 nm for isoproterenol dipivalate hydrochloride. The optical impurities were quantitated by the absorbance at 223 nm for isoproterenol bitartrate and 264 nm for isoproterenol dipivalate hydrochloride and by using a curve fitting software TABLECurve2D (Systat). The impurities of (R)-isoproterenol bitartrate and (R)-isoproterenol dipivalate hydrochloride were estimated as […], respectively. Thus, the racemization induced during synthesis and purification was minimal, if it occurred.
# Table 2 describes the optical purities of (S)-isoproterenol and (S)-isoproterenol dipivalate after incubation in various eye drop formulations for 10 days at 55° C. and compared with those before incubation. The incubation for 10 days at 55° C. corresponds to the incubation for 167 days at 22° C.
# retinal capillaries = experiment: Glycation of retinal capillaries in diabetic rats (anti-glycated BSA / anti-lectin staining); format: in vivo, Sprague-Dawley rats
# Protocol: Animal weights were monitored every week.
# The effects of (S)-isoproterenol on diabetic retinopathy were studied by staining retinal capillaries with antibodies against lectin. The capillary density at the retinal center, corresponding to the macular of the human eye, was analyzed.
# Diabetes induces glycation in retina. Since (S)-isoproterenol is a potent anti-glycation agent, penetration of (S)-isoproterenol reduces glycation in diabetic retinal capillaries. Thus, the retinas, which were stained with antibodies against lectin, were also stained with antibodies against glycated bovine serum albumin, and the degree of glycation of retinal capillaries was analyzed.
# [5] = Storage stability of the eye drop at 4° C. (HPLC profiles); format: physicochemical; conditions: 0.10% (w/v) eye drop, pH 5.5, one month of storage at 4° C.
# [6] = acute intravenous, mice; cited from earlier work
# [7] = 2.47% instilled to normal human eyes; cited from earlier work
smiles,measurement,setting,value
CO[C@H](CNC(C)C)c1ccc(O)c(O)c1 [(S)-1-(N-isopropyl)-3-methoxydopamine],Activity (anti-angiogenicity),HUVECs [1],Anti-angiogenic
"NC[C@@H](O)c1ccc(O)c(O)c1 [(S)-Noradrenaline, reference compound]",Activity (anti-angiogenicity),HUVECs [1],Non-antiangiogenic
same,Activity (anti-angiogenicity),HUVECs [1]; listed as (S)-noradrenaline,not anti-angiogenic
CCNC[C@@H](O)c1ccc(O)c(O)c1 [(S)-N-ethylnoradrenaline],Activity (anti-angiogenicity),HUVECs [1],Anti-angiogenic
same,Activity (anti-angiogenicity),HUVECs [1]; listed as (S)—N-ethylnoradrenaline,anti-angiogenic activity
NCCc1ccc(O)c(O)c1 [Dopamine],potency (inhibition of capillary tube formation),"HUVECs [1]; angiogenic assay condition used in FIG. 1, 1-50 μM",comparable potency
same,concentration showing effective anti-angiogenic activity,"angiogenesis; Basu et al., 2001",1 µM
same,Activity (angiogenic / anti-angiogenic),angiogenesis,Anti-angiogenic^b
"CNCC(O)c1ccc(O)c(O)c1 (racemic) [(R,S)-Adrenaline]",Activity (anti-invasion),HUVECs [2],Non-antiinvasive
same,Activity (anti-angiogenicity),HUVECs [1],no anti-angiogenic activity
same,Activity (angiogenic / anti-angiogenic),angiogenesis,Angiogenic
NC[C@H](O)c1ccc(O)c(O)c1 [(R)-Noradrenaline],Activity (angiogenic / anti-angiogenic),angiogenesis,Angiogenic^a
CNCC(O)c1ccc(OC(=O)C(C)(C)C)c(OC(=O)C(C)(C)C)c1 (centres unmarked) [Dipivefrin],enhancement of ocular absorption versus adrenaline,[3],17 time
CC(C)NC[C@@H](O)c1ccc(OC(=O)C(C)(C)C)c(OC(=O)C(C)(C)C)c1 [(S)-isoproterenol dipivalate],conversion to the (R)-isoform,[4]; 10 days at 55° C.,0.02%
same,% optical purity,"[4]; 10 days at 55° C., NaCl 8 mg/mL, Benzalkonium chloride 0.04 mg/mL, Tween 80 2.5 mg/mL",>99.90%
same,% optical purity,"[4]; 10 days at 55° C., Povidone 2 mg/mL, Benzalkonium chloride 0.04 mg/mL, D-Mannitol 54.7 mg/mL",99.90%
same,% optical purity,"[4]; 10 days at 55° C., Povidone 2 mg/mL, D-Mannitol 54.7 mg/mL, Chlorobutanol 1 mg/mL, 2-hydroxypropyl cyclodextrin 10.1 mg/mL",99.74%
same,% optical purity,"[4]; 10 days at 55° C., Povidone 2 mg/mL, NaCl 8 mg/mL, Benzalkonium chloride 0.04 mg/mL, 2-hydroxypropyl cyclodextrin 10.1 mg/mL",99.86%
same,average optical purity after incubating 10 days at 55° C.,[4]; average over the eye drop formulations,approximately 99.85±0.08%
same,optical purity after 2 years of storage at room temperature,"[4]; extrapolated, from 99.87%",99.78%
same,blood glucose level,"Group II, non-diabetic rats receiving prodrug eye drop, 27 week period",5.1 ± 0.4 mM
same,blood glucose level,"Group IV, diabetic rats receiving prodrug eye drop, stabilized level",27 ± 5 mM
same,effect on glycation in retinal capillaries,retinal capillaries; 0.1% eye drop,significantly reduced the glycation in retinal capillaries
same,red fluorescence intensity of AGEs normalized by the retinal capillary density,"retinal capillaries; 0.1% eye drop twice a day, P 0.068 vs diabetic rats with vehicle",0.44±0.17
same,degradation of the active ingredient in eye drop (HPLC profiles),[5],No degradation
CCCNC[C@@H](O)c1ccc(O)c(O)c1 [(S)-N-n-propylnoradrenaline],Activity (anti-angiogenicity),HUVECs [1],Anti-angiogenic
same,Activity (anti-angiogenicity),HUVECs [1]; listed as (S)—N-propylnoradrenaline,anti-angiogenic activity
CC(C)NC[C@H](O)c1ccc(O)c(O)c1 [(R)-isoproterenol],LD50,[6],57 ± 2 mg/kg
same,Activity (anti-invasion),HUVECs [2],did not show any anti-invasion activity; also recorded: Non-antiinvasive
same,Activity (angiogenic / anti-angiogenic),angiogenesis,Angiogenic
same,Activity (angiogenic / anti-angiogenic),angiogenesis; listed as (R)-Isoproterenol,angiogenic
CO[C@@H](CNC(C)C)c1ccc(O)c(O)c1 [(R)-1-(N-isopropyl)-3-methoxydopamine],Activity (anti-angiogenicity),HUVECs [1],Anti-angiogenic
"CCC(NC(C)C)C(O)c1ccc(O)c(O)c1 (racemic) [Isoetharine, 1-(3,4-dihydroxyphenyl)-2-(Isopropylamino)-1(R,S)-butanol]",Activity (anti-angiogenicity),HUVECs [1],Anti-angiogenic
same,Activity (anti-angiogenicity),HUVECs [1]; listed as isoetharine,anti-angiogenic activity
"CC(C)(C)NCC(O)c1ccc(O)c(O)c1 (racemic) [(R,S)-N-tert-butylnoradrenaline]",Activity (anti-angiogenicity),HUVECs [1],Anti-angiogenic
same,Activity (anti-angiogenicity),"HUVECs [1]; listed as (R,S)—N-tert-butylnoradrenaline",anti-angiogenic activity
CCCCNC[C@@H](O)c1ccc(O)c(O)c1 [(S)-N-n-butylnoradrenaline],Activity (anti-angiogenicity),HUVECs [1],Anti-angiogenic
same,Activity (anti-angiogenicity),HUVECs [1]; listed as (S)—N-butylnoradrenaline,anti-angiogenic activity
"CC(C)NCC(O)c1ccc(O)c(O)c1 (racemic) [(R,S)-isoproterenol, reference compound]",Activity (anti-angiogenicity),HUVECs [1],did not show anti-angiogenic activity; also recorded: no anti-angiogenic activity; also recorded: Non-antiangiogenic
same,duration of reduction in ocular tension,[7],at least 12 h
same,reduction in ocular tension,[7],20%
